The values that follow come from patent publication US20230364039A1, “Methods of Managing Side Effects of a Vasopressin Receptor Antagonist Therapy” (Emory University, priority 2020, published 2023).

Molecules are shown by their SMILES. Like-named read-outs stand apart in the source and are kept apart here.

Series [1] concerns adenosine monophosphate activated protein kinase (AMPK). Description: AMPK activator potency and specificity (preliminary data).
The next series relates to tolvaptan treated rats. Description: Urine osmolality / urine concentrating ability in tolvaptan treated rats. As to conditions: FIG. 1; for urine osmolality: rats on tolvaptan 10 mg/kg/day by gavage, AMPK activator 2.5, 5 and 10 mg/kg/day up to 14 days, vs tolvaptan only. The class given is in vivo. The procedure: Tolvaptan (10 mg/kg/day) was delivered by gavage feeding daily. AMPK activator was given at 2.5, 5 and 10 mg/kg/day for up to 14 total days, with daily urine collection for osmolality determination. Light bars: Osmolality in rats receiving tolvaptan only. Black bars: treated rats. Mean±s.e., n=4-5 for lower doses, 8-10 for 10 mg/kg/day, *=p<0.05.

For series [2], the system named is vasopressin type 2 receptor knockout mouse model. Description: Urine concentrating ability in vasopressin type 2 receptor knockout mouse model. The series is classed as in vivo.
Series [3] can be described thus: Hypoglycemia liability of AMPK activators. The class given is in vivo. As to conditions: preliminary data.
The subject of series [4] is rodents with nephrogenic diabetes insipidus. As to conditions: Efe et al., JCI Insight 2016; cited from earlier work.
The conditions of series [5]: general statement on some AMPK activators; cited from earlier work.
In series [6] the test system is autosomal dominant polycystic kidney disease (ADPKD). As to conditions: cited from earlier work.

As for `NC(=O)C1(CCCCCCCCCCCCC2(C(N)=O)CC2)CC1` [NP-5033, 1,1′-(dodecane-1,12-diyl)bis(cyclopropane-1-carboxamide)], the “potency and specificity as AMPK activator” value in series [1] is given as “potent, specific”. The urine osmolality result is recorded as “increases urine osmolality” in the series with tolvaptan treated rats and “urine osmolality increases” in the series on tolvaptan treated rats (listed as AMPK activator). Moreover, the urine concentrating ability result (in the series on tolvaptan treated rats (tolvaptan treated rats); in series [2]) was “improvement in urine concentrating ability” throughout. Besides, the hypoglycemia result in series [3] was “does not cause hypoglycemia”.

Consider `CN(C)C(=N)N=C(N)N` [metformin], for which the urine concentration result in series [4] is given as “improves urine concentration”. Also, the hypoglycemia entry in series [5] is “risk of developing hypoglycemia”.

Regarding `Cc1ccccc1C(=O)Nc1ccc(C(=O)N2CCCC(O)c3cc(Cl)ccc32)c(C)c1` (stereo not shown) [tolvaptan, N-(4-(7-chloro-5-hydroxy-2,3,4,5-tetrahydro-1H-benzo[b]azepine-1-carbonyl)-3-methylphenyl)-2-methylbenzamide], the “progression of renal cyst development” value in series [6] (ADPKD) is listed as “slows the progression of renal cyst development”. Further, the “side effect: urine volume” value in series [6] (tolvaptan treatment, polyuria defined as greater than 2.5 L or 3 L over 24 hours in adults) was “overt polyuria”.
